{"source": "patent US20100061943A1", "about": "“ORAL HEALTH COMPOSITION COMPRISING ALCHEMILLA VULGARIS” (MARS INCORPORATED, priority 2006, published 2010)", "format_in_all_cases": "cell-based, cats", "key": {"[1]": {"system": "Trypsin-like protease activity", "experiment": "Feline plate biofilm assay (PBA): protease activity (liquid BAPNA assay)", "conditions": "48 hours biofilm, extracts at 500 μg/ml, vs no active control", "experimental": "(§1) The assay requires fresh supragingival feline dental plaque and saliva for inoculation. The inoculum consists of pooled dental plaque and unfiltered saliva sampled from a group of 18 cats, varying in age, breed and oral health status.\n(§2) The plaque and saliva were resuspended in artificial saliva to form the inoculum of approximately 10% plaque and 30% saliva.\n(§3) The plate biofilm assay (PBA) utilises a 24 well plate format in which biofilms, representative of feline dental plaque, are grown on hydroxyapatite (HA) discs. Prior to being introduced to the 24 well assay plate, each HA disc is preconditioned for 2 hours in a solution of 50% filter sterilised feline saliva in artificial feline saliva. The preconditioning step stimulates the formation of a salivary pellicle on the HA disc surface. […] Each HA disc, with the exception of those being used for biomass quantification, is placed into 500 μl PBS and vortex mixed for 30 seconds to remove biofilm growth from the disc into solution. […] Biofilm-covered HA discs that are being used for biomass quantification are removed from the 24 well assay plate and used directly in the crystal violet assay.\nTrypsin-like protease activity was measured using the liquid BAPNA assay, a colourimetric assay in which the amount of trypsin present in a sample is directly proportional to the intensity of the colour developed. […]"}, "[2]": {"system": "black pigmenting colonies (BPC)", "experiment": "Feline plate biofilm assay (PBA): bacterial viable counts, black pigmenting colonies", "conditions": "48 hours biofilm, extracts at 500 μg/ml, vs no active control", "experimental": "as §1, §2\nas §3, with “saliva.” for “saliva. The preconditioning step stimulates the formation of a salivary pellicle on the HA disc surface.”\n(§4) Viable numbers of bacteria were quantified using Columbia blood agar plates supplemented with haemin and menadione. Aerobes were counted after incubation for 2 days and anaerobes, including black pigmenting colonies (BPC), were counted after incubation at appropriate conditions for 9 days. […]"}, "[3]": {"system": "anaerobes", "experiment": "Feline plate biofilm assay (PBA): bacterial viable counts, anaerobes", "conditions": "48 hours biofilm, extracts at 500 μg/ml, vs no active control", "experimental": "as §1, §2\nas §3, with “saliva.” for “saliva. The preconditioning step stimulates the formation of a salivary pellicle on the HA disc surface.”\nas §4"}, "[4]": {"system": "biofilms representative of feline dental plaque", "experiment": "Feline plate biofilm assay (PBA): biomass quantification (crystal violet assay)", "conditions": "48 hours biofilm, OD595, extracts at 500 μg/ml, vs no active control", "experimental": "as §1, §2, §3\nThe total amount of biofilm grown on the HA discs was quantified using the crystal violet staining method. Biomass was represented as being directly proportional to the OD reading at 595 nm (OD595) of the samples compared to controls. […]"}, "[5]": {"system": "Aerobes", "experiment": "Feline plate biofilm assay (PBA): bacterial viable counts, aerobes", "conditions": "48 hours biofilm, extracts at 500 μg/ml, vs no active control", "experimental": "as §1, §2\nas §3, with “saliva.” for “saliva. The preconditioning step stimulates the formation of a salivary pellicle on the HA disc surface.”\nas §4"}}, "data": [{"smiles": "[H]/N=C(\\N/C(=N/[H])NCCCCCCNC(=N)NC(=N)Nc1ccc(Cl)cc1)Nc1ccc(Cl)cc1", "note": "[Chlorhexidine, chlorhexidine]", "values": [{"measurement": "Protease (% reduction)", "setting": "[1]", "value": 90.0, "unit": "%"}, {"measurement": "BPC (Log 10 reduction)", "setting": "[2]", "value": 4.86, "unit": "Log 10"}, {"measurement": "Anaerobe (Log 10 reduction)", "setting": "[3]", "value": 2.16, "unit": "Log 10"}, {"measurement": "Biomass (% reduction)", "setting": "[4]", "value": 79.0, "unit": "%"}, {"measurement": "Aerobe (Log 10 reduction)", "setting": "[5]", "value": 1.91, "unit": "Log 10"}]}]}
